Numbered stars: 1 amine (or outer) side, 2 acyl side, 3 side chain; on linkers, the order of the positions; unused ones are H or OH. Bridge positions count the residues as written; N and C are the ends. Square brackets hold non-standard residues; d marks the D form. Peptide text beside a SMILES is read from it. * marks the point of attachment. Phe(4-COOH) = N[C@@H](Cc1ccc(C(=O)O)cc1)C(=O)O; Bip = N[C@@H](Cc1ccc(-c2ccccc2)cc1)C(=O)O; Phe(3-Me) = Cc1cccc(C[C@H](N)C(=O)O)c1; γGlu = O=C(O)[C@H](CCC(=O)[*:2])N[*:1]; βAsp = O=C(O)[C@H](CC(=O)[*:2])N[*:1]; 4Pal = N[C@@H](Cc1ccncc1)C(=O)O; Cha = N[C@@H](CC1CCCCC1)C(=O)O; Cit = NC(=O)NCCC[C@H](N)C(=O)O; Carboxymethyl = O=C(O)C*; Orn = NCCC[C@H](N)C(=O)O; Aun = NCCCCCCCCCCC(=O)O; Dab = NCC[C@H](N)C(=O)O; Dap = NC[C@H](N)C(=O)O; AEEA = NCCOCCOCC(=O)O

T1 sequence (Q15116 25-288): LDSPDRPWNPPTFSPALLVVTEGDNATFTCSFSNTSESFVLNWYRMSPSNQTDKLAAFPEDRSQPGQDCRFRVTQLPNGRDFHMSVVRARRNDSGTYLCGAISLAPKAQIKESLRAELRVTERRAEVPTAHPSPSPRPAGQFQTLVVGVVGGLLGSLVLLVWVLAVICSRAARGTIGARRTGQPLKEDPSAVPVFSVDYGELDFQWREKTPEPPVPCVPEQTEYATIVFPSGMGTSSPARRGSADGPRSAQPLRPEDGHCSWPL

This assay has as its target T1, PD-1/PD-L1 interaction (PE-labeled human PD-L1-Ig binding to Jurkat cell line over-expressing human PD-1) (Homo sapiens, UniProt Q15116).
T1 construct: expressed in transfected cells; host or cells: Jurkat
Put plainly: Jurkat-PD-1 Cell Binding High-Content Screening Assay (CBA). The class given is cell-based. As to conditions: Jurkat cell line over-expressing human PD-1; PE-labeled PD-L1-Ig 20 nM final; read-out: Jurkat hPD1-PDL1 IC50. The procedure: Example 2: Jurkat-PD-1 Cell Binding High-Content Screening Assay (CBA)
Phycoerythrin (PE) was covalently linked to the Ig epitope tag of human PD-L1-Ig and fluorescently-labeled PD-L1-Ig was used for binding studies with a Jurkat cell line over-expressing human PD-1 (Jurkat-PD-1). Briefly, 8×10^3 Jurkat-hPD-1 cells were seeded into 384 well plates in 20 μl of DMEM supplemented with 10% fetal calf serum. 100 nl of compound was added to cells followed by incubation at 37° C. for 2 h. Then, 5 μl of PE-labeled PD-L1-Ig (20 nM final), diluted in DMEM supplemented with 10% fetal calf serum. After 1 hour incubation, cells were fixed with 4% paraformaldehyde in dPBS containing 10 μg/ml Hoechst 33342 and then washed 3× in 100 μl dPBS. Data was collected and processed using a Cell Insight NXT High Content Imager and associated software.
For `Cc1cccc(C[C@@H]2NC(=O)[C@H](CC(=O)O)NC(=O)[C@H](Cc3ccc(OCC(=O)O)cc3)NC(=O)[C@H](CN)NC(=O)CSC[C@@H](C(=O)N[C@@H](CCC(=O)NCCOCCOCC(=O)NCCCCCCCCCCC(=O)O)C(=O)O)NC(=O)[C@H]([C@@H](C)O)NC(=O)[C@H](C(C)C)NC(=O)[C@H](CC3CCCCC3)NC(=O)[C@H](CCN)NC(=O)[C@@H](CC(C)C)NC(=O)[C@H](CCCN)NC(=O)[C@H](CCCNC(N)=O)NC(=O)[C@H](Cc3ccc(-c4ccccc4)cc3)NC(=O)[C@H](C(C)C)NC2=O)c1` [Compound 1034] ({CH2CO}-[Dap]Y(Carboxymethyl)D[Phe(3-Me)]V[Bip][Cit][Orn][dL][Dab][Cha]VTC[γGlu][AEEA][Aun]-OH; thioether N-14), the half-maximal inhibitory concentration (IC50) is 6.6 nM.
For `Cc1cccc(C[C@@H]2NC(=O)[C@H](CC(=O)O)NC(=O)[C@H](Cc3ccc(OCC(=O)O)cc3)NC(=O)[C@H](CN)NC(=O)CSC[C@@H](C(=O)N[C@@H](CC(=O)NCCOCCOCC(=O)NCCCCCCCCCCC(=O)O)C(=O)O)NC(=O)[C@H]([C@@H](C)O)NC(=O)[C@H](C(C)C)NC(=O)[C@H](CC3CCCCC3)NC(=O)[C@H](CCN)NC(=O)[C@@H](CC(C)C)NC(=O)[C@H](CCCN)NC(=O)[C@H](CCCNC(N)=O)NC(=O)[C@H](Cc3ccc(-c4ccccc4)cc3)NC(=O)[C@H](C(C)C)NC2=O)c1` [Compound 1035] ({CH2CO}-[Dap]Y(Carboxymethyl)D[Phe(3-Me)]V[Bip][Cit][Orn][dL][Dab][Cha]VTC[βAsp][AEEA][Aun]-OH; thioether N-14) the value was 9 nM.
Consider `Cc1cccc(C[C@@H]2NC(=O)[C@H](CC(=O)O)NC(=O)[C@H](Cc3ccc(OCC(=O)O)cc3)NC(=O)[C@H](CN)NC(=O)CSC[C@@H](C(=O)N[C@@H](CC(=O)O)C(=O)NCCOCCOCC(=O)NCCCCCCCCCCC(=O)O)NC(=O)[C@H]([C@@H](C)O)NC(=O)[C@H](C(C)C)NC(=O)[C@H](CC3CCCCC3)NC(=O)[C@H](CCN)NC(=O)[C@@H](CC(C)C)NC(=O)[C@H](CCCN)NC(=O)[C@H](CCCNC(N)=O)NC(=O)[C@H](Cc3ccc(-c4ccccc4)cc3)NC(=O)[C@H](C(C)C)NC2=O)c1` [Compound 1036] ({CH2CO}-[Dap]Y(Carboxymethyl)D[Phe(3-Me)]V[Bip][Cit][Orn][dL][Dab][Cha]VTCD[AEEA][Aun]-OH; thioether N-14), for which the IC50 worked out at 6.8 nM.
On to `Cc1cccc(C[C@@H]2NC(=O)[C@H](CC(=O)O)NC(=O)[C@H](Cc3ccc(OCC(=O)O)cc3)NC(=O)[C@H](CN)NC(=O)CSC[C@@H](C(=O)N[C@@H](CCC(=O)O)C(=O)NCCOCCOCC(=O)NCCCCCCCCCCC(=O)O)NC(=O)[C@H]([C@@H](C)O)NC(=O)[C@H](C(C)C)NC(=O)[C@H](CC3CCCCC3)NC(=O)[C@H](CCN)NC(=O)[C@@H](CC(C)C)NC(=O)[C@H](CCCN)NC(=O)[C@H](CCCNC(N)=O)NC(=O)[C@H](Cc3ccc(-c4ccccc4)cc3)NC(=O)[C@H](C(C)C)NC2=O)c1` [Compound 1037] ({CH2CO}-[Dap]Y(Carboxymethyl)D[Phe(3-Me)]V[Bip][Cit][Orn][dL][Dab][Cha]VTCE[AEEA][Aun]-OH; thioether N-14), for which the IC50 turned out to be 7.6 nM.
For `Cc1cccc(C[C@@H]2NC(=O)[C@H](CC(=O)O)NC(=O)[C@H](Cc3ccc(OCC(=O)O)cc3)NC(=O)[C@H](CN)NC(=O)CSC[C@@H](C(=O)NCCOCCOCC(=O)NCCCCCCCCCCC(=O)O)NC(=O)[C@H]([C@@H](C)O)NC(=O)[C@H](C(C)C)NC(=O)[C@H](CC3CCCCC3)NC(=O)[C@H](CCN)NC(=O)[C@@H](CC(C)C)NC(=O)[C@H](CCCN)NC(=O)[C@H](CCCNC(N)=O)NC(=O)[C@H](Cc3ccc(-c4ccccc4)cc3)NC(=O)[C@H](C(C)C)NC2=O)c1` [Compound 1038] ({CH2CO}-[Dap]Y(Carboxymethyl)D[Phe(3-Me)]V[Bip][Cit][Orn][dL][Dab][Cha]VTC[AEEA][Aun]-OH; thioether N-14) the value was 20.8 nM; for `CC[C@H](C)[C@@H]1NC(=O)[C@H](Cc2ccc(-c3ccccc3)cc2)NC(=O)[C@H](C(C)C)NC(=O)[C@H](Cc2cccc(C)c2)NC(=O)[C@H](CC(=O)O)NC(=O)[C@H](Cc2ccc(C(=O)O)cc2)NC(=O)[C@H](Cc2ccncc2)NC(=O)CSC[C@@H](C(=O)N[C@@H](C)C(=O)N[C@@H](CCC(=O)O)C(=O)NCCCCCCCCCCC(=O)O)NC(=O)[C@H]([C@@H](C)O)NC(=O)[C@H](C(C)C)NC(=O)[C@H](CC2CCCCC2)NC(=O)[C@H](CCN)NC(=O)[C@@H](CC(C)C)NC(=O)[C@H](CCCN)NC1=O` [Compound 1039], 11.9 nM.
Turning to `CC[C@H](C)[C@@H]1NC(=O)[C@H](Cc2ccc(-c3ccccc3)cc2)NC(=O)[C@H](C(C)C)NC(=O)[C@H](Cc2cccc(C)c2)NC(=O)[C@H](CC(=O)O)NC(=O)[C@H](Cc2ccc(C(=O)O)cc2)NC(=O)[C@H](Cc2ccncc2)NC(=O)CSC[C@@H](C(=O)N[C@@H](CCC(=O)O)C(=O)NCCCCCCCCCCC(=O)O)NC(=O)[C@H]([C@@H](C)O)NC(=O)[C@H](C(C)C)NC(=O)[C@H](CC2CCCCC2)NC(=O)[C@H](CCN)NC(=O)[C@@H](CC(C)C)NC(=O)[C@H](CCCN)NC1=O` [Compound 1040] ({CH2CO}-[4Pal][Phe(4-COOH)]D[Phe(3-Me)]V[Bip]I[Orn][dL][Dab][Cha]VTCE[Aun]-OH; thioether N-14), the IC50 was 52.9 nM.
For `CC[C@H](C)[C@@H]1NC(=O)[C@H](Cc2ccc(-c3ccccc3)cc2)NC(=O)[C@H](C(C)C)NC(=O)[C@H](Cc2cccc(C)c2)NC(=O)[C@H](CC(=O)O)NC(=O)[C@H](Cc2ccc(C(=O)O)cc2)NC(=O)[C@H](Cc2ccncc2)NC(=O)CSC[C@@H](C(=O)N[C@@H](C)C(=O)N[C@@H](CCC(=O)O)C(=O)NCC(=O)NCCCCCCCCCCC(=O)O)NC(=O)[C@H]([C@@H](C)O)NC(=O)[C@H](C(C)C)NC(=O)[C@H](CC2CCCCC2)NC(=O)[C@H](CCN)NC(=O)[C@@H](CC(C)C)NC(=O)[C@H](CCCN)NC1=O` [Compound 1041] the value was 15.1 nM.
For `CC[C@H](C)[C@@H]1NC(=O)[C@H](Cc2ccc(-c3ccccc3)cc2)NC(=O)[C@H](C(C)C)NC(=O)[C@H](Cc2cccc(C)c2)NC(=O)[C@H](CC(=O)O)NC(=O)[C@H](Cc2ccc(C(=O)O)cc2)NC(=O)[C@H](Cc2ccncc2)NC(=O)CSC[C@@H](C(=O)N[C@@H](C)C(=O)N[C@@H](CC(=O)O)C(=O)NCC(=O)NCCCCCCCCCCC(=O)O)NC(=O)[C@H]([C@@H](C)O)NC(=O)[C@H](C(C)C)NC(=O)[C@H](CC2CCCCC2)NC(=O)[C@H](CCN)NC(=O)[C@@H](CC(C)C)NC(=O)[C@H](CCCN)NC1=O` [Compound 1042] the value was 15.3 nM.
Take `CC[C@H](C)[C@@H]1NC(=O)[C@H](Cc2ccc(-c3ccccc3)cc2)NC(=O)[C@H](C(C)C)NC(=O)[C@H](Cc2cccc(C)c2)NC(=O)[C@H](CC(=O)O)NC(=O)[C@H](Cc2ccc(C(=O)O)cc2)NC(=O)[C@H](Cc2ccncc2)NC(=O)CSC[C@@H](C(=O)N[C@@H](CC(=O)O)C(=O)NCCCCCCCCCCC(=O)O)NC(=O)[C@H]([C@@H](C)O)NC(=O)[C@H](C(C)C)NC(=O)[C@H](CC2CCCCC2)NC(=O)[C@H](CCN)NC(=O)[C@@H](CC(C)C)NC(=O)[C@H](CCCN)NC1=O` [Compound 1043] ({CH2CO}-[4Pal][Phe(4-COOH)]D[Phe(3-Me)]V[Bip]I[Orn][dL][Dab][Cha]VTCD[Aun]-OH; thioether N-14): the concentration for half-maximal inhibition (IC50) was 15.6 nM.
With `Cc1cccc(C[C@@H]2NC(=O)[C@H](CC(=O)O)NC(=O)[C@H](Cc3ccc(OCC(=O)O)cc3)NC(=O)[C@H](CN)NC(=O)CSC[C@@H](C(=O)N[C@@H](C)C(=O)N[C@@H](CCC(=O)O)C(=O)NCCCCCCCCCCC(=O)O)NC(=O)[C@H]([C@@H](C)O)NC(=O)[C@H](C(C)C)NC(=O)[C@H](CC3CCCCC3)NC(=O)[C@H](CCN)NC(=O)[C@@H](CC(C)C)NC(=O)[C@H](CCCN)NC(=O)[C@H](CCC(=O)O)NC(=O)[C@H](Cc3ccc(-c4ccccc4)cc3)NC(=O)[C@H](C(C)C)NC2=O)c1` [Compound 1044] ({CH2CO}-[Dap]Y(Carboxymethyl)D[Phe(3-Me)]V[Bip]E[Orn][dL][Dab][Cha]VTCAE[Aun]-OH; thioether N-14) the figure was 6.1 nM.
For `Cc1cccc(C[C@@H]2NC(=O)[C@H](CC(=O)O)NC(=O)[C@H](Cc3ccc(OCC(=O)O)cc3)NC(=O)[C@H](CN)NC(=O)CSC[C@@H](C(=O)N[C@@H](CCC(=O)O)C(=O)NCCCCCCCCCCC(=O)O)NC(=O)[C@H]([C@@H](C)O)NC(=O)[C@H](C(C)C)NC(=O)[C@H](CC3CCCCC3)NC(=O)[C@H](CCN)NC(=O)[C@@H](CC(C)C)NC(=O)[C@H](CCCN)NC(=O)[C@H](CCC(=O)O)NC(=O)[C@H](Cc3ccc(-c4ccccc4)cc3)NC(=O)[C@H](C(C)C)NC2=O)c1` [Compound 1045] ({CH2CO}-[Dap]Y(Carboxymethyl)D[Phe(3-Me)]V[Bip]E[Orn][dL][Dab][Cha]VTCE[Aun]-OH; thioether N-14) the value was 11 nM; for `Cc1cccc(C[C@@H]2NC(=O)[C@H](CC(=O)O)NC(=O)[C@H](Cc3ccc(OCC(=O)O)cc3)NC(=O)[C@H](CN)NC(=O)CSC[C@@H](C(=O)N[C@@H](C)C(=O)N[C@@H](CCC(=O)O)C(=O)NCC(=O)NCCCCCCCCCCC(=O)O)NC(=O)[C@H]([C@@H](C)O)NC(=O)[C@H](C(C)C)NC(=O)[C@H](CC3CCCCC3)NC(=O)[C@H](CCN)NC(=O)[C@@H](CC(C)C)NC(=O)[C@H](CCCN)NC(=O)[C@H](CCC(=O)O)NC(=O)[C@H](Cc3ccc(-c4ccccc4)cc3)NC(=O)[C@H](C(C)C)NC2=O)c1` [Compound 1046] ({CH2CO}-[Dap]Y(Carboxymethyl)D[Phe(3-Me)]V[Bip]E[Orn][dL][Dab][Cha]VTCAEG[Aun]-OH; thioether N-14), 16.2 nM.

Usually IC50 stands for the midpoint of a concentration-inhibition curve.

Values taken from patent US20260022142A1, “MACROCYCLIC IMMUNOMODULATORS” (Bristol-Myers Squibb Company, priority 2022, published 2026).
